Reference: patent US20260022114A1, “N-(5-SUBSTITUTED-[(1,3,4-THIADIAZOLYL) OR (1,3-THIAZOLYL)](SUBSTITUTED)CARBOXAMIDE COMPOUNDS, PHARMACEUTICAL COMPOSITIONS, AND METHODS OF PREPARING THE AMIDE COMPOUNDS AND OF THEIR USE” (Repare Therapeutics Inc., priority 2022, published 2026)
Entries after “also recorded” stand apart in the source; their conditions may differ.

Key:
[1] = target: PolQ ATPase enzyme (1-894) (Homo sapiens (Human), UniProt O75417); assay: Polθ ATPase enzymatic assay (3 nM enzyme concentration), ADP-Glo; assay type: biochemical
Description: Following pre-incubation with inhibitors, DNA (Fork C) at 20 nM and ATP at 100 μM are added to start the reaction. Enzymatic reaction proceeds at rt for 60 min. ATP consumption is measured using the ADP-Glo assay from Promega. Luminescence is read on the Envision and IC50 are determined using the variable slope 4-parameters equation.
DNA (Fork C) is made by annealing 3 different oligos containing the following sequence of nucleotides:
Oligos are annealed by heating at 95° C. for 5 min in the following buffer (10 mM Tris-HCl PH7.5, 50 mM NaCl, 1 mM EDTA) and cooled to rt.
In Table 4, the Compounds were prepared according to Methods described previously using Intermediates described herein, commercially available reagents or intermediates described in the literature. In some cases, the use of protecting groups may be required to prepare Compounds described below.

DLD1-BRCA2−/− tumors = assay: Compound 113 and carboplatin, tumor volume in mice; assay type: in vivo, SCID-Beige mice; settings: Compound 113 45 mg/kg SDD suspension p.o. QD with carboplatin 25 mg/kg i.p. QW; day 35 N=10, p=0.0428 (FIG. 6A, 6B)
Description: (§1) A spray dried dispersion (SDD) formulation was developed using Compound 113. A 1:1 (w/w) mixture of Compound 113 and HPMCAS (grade H) were fully dissolved in a 4:1 (v/v) mixture of dichloromethane:methanol at a loading of ˜5% solid (w/w). The solution was spray-dried to an amorphous powder which was further dried overnight in a vacuum oven set to 40° C. to remove residual solvents. This SDD material was used for subsequent in vivo dosing in mouse models.
DLD1-BRCA2−/− (10^7 cells/mouse) cells were injected subcutaneously in SCID-Beige mice. Mice were randomized at a mean tumor volume of 150 mm^3. Compound 113 (45 mg/kg as an SDD suspension in 0.5% methocel+0.02% SLS) was dosed orally (p.o.) QD throughout the study. Carboplatin (25 mg/kg) was dosed i.p. QW. Control mice were dosed QD and QW with corresponding vehicle solutions. Tumor volumes were measured (caliper) every 2-3 days.

HCT116 BRCA2−/− cells = assay: Combination of Compound 113 and PARP inhibitors, cell growth by Incucyte; assay type: cell-based
Description: HCT116-BRCA2−/− (750 cells/well) cells were seeded in a 96-well plate (Costar 3595) and incubated overnight in a tissue culture incubator (5% CO2, 37° C.). The next day, Compound 113 and PARP inhibitors (olaparib or niraparib) were added using a TECAN D300 instrument. Media was replenished with fresh compounds every 3 or 4 days. Cellular growth was monitored using the Incucyte® Live-Cell Analysis System until DMSO-treated wells reached 90% confluency (10-12 days). Cellular confluency was determined using Incucyte® Cell-by-Cell Analysis Software Module and dose-response curves calculated using GraphPad Prism software.

[2] = tested on: DLD1 BRCA2 null tumor cells; assay: Polθ-DNA-PK inhibitor combination, cell viability by Incucyte; assay type: cell-based; settings: in combination with AZD-7648 (DNA-PK inhibitor), 8 days (FIG. 4)
Description: DLD1 BRCA2 null tumor cells were plated at 1000 cells/well in 96 well plates. Compounds were added on day 1 and cells were grown in at 37° C. for 8 days. Cell growth was assessed by the Incucyte assay. Cell viability was normalized to untreated cells.

[3] = tested on: DOTC24510 BRCA 2 mutant breast tumor cells; assay: Compound 113 and radiotherapy, cell viability by Incucyte; assay type: cell-based; settings: 200 nM Compound 113 with radiotherapy at 0.5 or 1 Gy on days 2, 6, 9; read day 13 (FIG. 5)
Description: DOTC24510 BRCA 2 mutant breast tumor cells were plated in 96 well plates at a density of 1000 cells per well and cultured in tissue culture medium at 37° C. On day 1, cells were treated with either DMSO or 200 nM of Compound 113. Cells were irradiated with 0, 0.25, 0.5 or 1 Gy of radiation on days 2, 6, and 9. Cell viability was assessed by Incucyte assay on day 13.

HCT116 BRCA2−/− tumor = assay: Polθ-PARP inhibitor combination therapy, tumor volume in mice; assay type: in vivo, SCID-Beige mice; settings: Compound 113 30 mg/kg SDD suspension p.o. QD with olaparib 25 mg/kg p.o. QD; N=10, p=0.0008 (FIG. 2)
Description: as §1
HCT116-BRCA2−/− (10^7 cells/mouse) cells were injected subcutaneously in SCID-Beige mice. Mice were randomized at a mean tumor volume of 150 mm^3. Compound 113 (30 mg/kg as an SDD suspension in 0.5% methocel+0.02% SLS) and PARP inhibitor olaparib (25 mg/kg) were dosed orally (p.o.) QD throughout the study. Control mice were dosed QD with vehicle solution. Tumor volumes measured (caliper) every 3-4 days. N=10, Welch's t test, *** p=0.0008.

[4] = tested on: MDAMB436 BRCA1 mutant breast tumor cells; assay: Polθ-DNA-PK inhibitor combination, cell viability by Incucyte; assay type: cell-based; settings: in combination with AZD-7648 (DNA-PK inhibitor), 9 days (FIG. 3)
Description: MDAMB436 BRCA1 mutant breast tumor cells were plated at 1500 cells/well in 96 well plates. Compounds were added on day 1 and cells were grown in at 37° C. for 9 days. Cell growth was assessed by the Incucyte assay. Cell viability was normalized to untreated cells.

Sequence of PolQ ATPase enzyme (1-894) (O75417 1-894): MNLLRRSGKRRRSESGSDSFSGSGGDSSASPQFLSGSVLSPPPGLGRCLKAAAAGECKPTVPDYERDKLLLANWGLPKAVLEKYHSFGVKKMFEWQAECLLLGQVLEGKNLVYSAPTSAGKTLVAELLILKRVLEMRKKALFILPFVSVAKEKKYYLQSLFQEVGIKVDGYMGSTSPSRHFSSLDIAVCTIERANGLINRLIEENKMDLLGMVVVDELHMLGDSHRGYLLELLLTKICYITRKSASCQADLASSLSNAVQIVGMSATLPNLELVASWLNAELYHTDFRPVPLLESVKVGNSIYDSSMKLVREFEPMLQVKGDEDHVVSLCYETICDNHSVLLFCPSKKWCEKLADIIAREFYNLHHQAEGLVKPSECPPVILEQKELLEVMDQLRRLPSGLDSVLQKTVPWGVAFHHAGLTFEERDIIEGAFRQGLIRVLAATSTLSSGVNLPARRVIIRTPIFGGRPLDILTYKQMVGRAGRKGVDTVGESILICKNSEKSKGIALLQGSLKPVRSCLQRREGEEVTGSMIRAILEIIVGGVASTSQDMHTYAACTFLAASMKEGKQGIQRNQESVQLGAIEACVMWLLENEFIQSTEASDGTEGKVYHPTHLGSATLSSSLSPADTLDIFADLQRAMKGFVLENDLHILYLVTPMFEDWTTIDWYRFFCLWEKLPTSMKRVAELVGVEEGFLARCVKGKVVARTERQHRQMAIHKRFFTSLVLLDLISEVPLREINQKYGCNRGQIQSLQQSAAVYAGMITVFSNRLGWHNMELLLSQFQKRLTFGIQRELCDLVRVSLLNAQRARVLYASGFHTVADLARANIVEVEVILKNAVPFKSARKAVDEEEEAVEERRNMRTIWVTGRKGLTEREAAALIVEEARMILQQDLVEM

IC50 [1]	SMILES	DLD1-BRCA2−/− tumor volume, combination versus monotherapy treatments (DLD1-BRCA2−/− tumors)	percent viability of HCT116 BRCA2−/− cells, combination versus inhibitors alone (HCT116 BRCA2−/− cells; in combination with niraparib, 10-12 days (FIG. 1B))	percent viability of HCT116 BRCA2−/− cells, combination versus inhibitors alone (HCT116 BRCA2−/− cells; in combination with olaparib, 10-12 days (FIG. 1A))	DLD1 BRCA2 null tumor cell viability, combination versus AZD-7648 alone [2]	DOTC24510 BRCA 2 mutant breast tumor cell viability, combination versus Compound 113 alone [3]	HCT116 BRCA2−/− tumor volume, combination versus inhibitors alone (HCT116 BRCA2−/− tumor)	MDAMB436 BRCA1 cell viability, combination versus AZD-7648 alone [4]
92 nM	COc1ccc(F)cc1-c1cnccc1C(=O)Nc1nnc([C@@H]2C[C@H]2c2nc3ccccc3n2C)s1 (racemic) [Compound 4, 3-(5-fluoro-2-methoxyphenyl)-N-(5-((1R,2R)-2-(1-methyl-1H-benzo[d]imidazol-2-yl)cyclopropyl)-1,3,4-thiadiazol-2-yl)isonicotinamide]							
	COc1cnc(C(F)F)cc1-c1cc(-c2ccn(C)n2)ncc1C(=O)Nc1nnc(C#CC2CC2)s1 [Compound 113, N-(5-(cyclopropylethynyl)-1,3,4-thiadiazol-2-yl)-2′-(difluoromethyl)-5′-methoxy-6-(1-methyl-1H-pyrazol-3-yl)-[4,4′-bipyridine]-3-carboxamide]	sensitizes DLD1 BRCA2 null tumors to carboplatin; also recorded: superior at reducing tumor volume in mice	superior at reducing cancer cell viability	superior at reducing cancer cell viability	sensitizes DLD1 BRCA2 null tumor cells to AZD-7648; also recorded: superior at reducing DLD1 BRCA2 null tumor cell viability	sensitizes DOTC24510 breast tumor cells to irradiation; also recorded: superior at reducing DOTC24510 BRCA 2 mutant breast tumor cell viability	superior at reducing tumor volume	sensitizes MDAMB436 breast tumor cells to AZD-7648; also recorded: superior at reducing MDAMB436 BRCA1 cell viability
